{
  "source": "patent US12344610B2",
  "about": "“APOL1 inhibitors and methods of use” (Maze Therapeutics, Inc., priority 2022, dated 2025)",
  "data": [
    {"target": "T1, APOL1 G2 (Homo sapiens, UniProt O14791, DEL388-389)", "T1 construct": "expressed in transfected cells; host or cells: HEK293 T-REx clonal line stably expressing GCaMP6f (HEK T-REx/GCaMP6f/APOL1 G2 K6.3), doxycycline induced", "T1 sequence (O14791 with tags, fused parts or gaps DEL388-389)": "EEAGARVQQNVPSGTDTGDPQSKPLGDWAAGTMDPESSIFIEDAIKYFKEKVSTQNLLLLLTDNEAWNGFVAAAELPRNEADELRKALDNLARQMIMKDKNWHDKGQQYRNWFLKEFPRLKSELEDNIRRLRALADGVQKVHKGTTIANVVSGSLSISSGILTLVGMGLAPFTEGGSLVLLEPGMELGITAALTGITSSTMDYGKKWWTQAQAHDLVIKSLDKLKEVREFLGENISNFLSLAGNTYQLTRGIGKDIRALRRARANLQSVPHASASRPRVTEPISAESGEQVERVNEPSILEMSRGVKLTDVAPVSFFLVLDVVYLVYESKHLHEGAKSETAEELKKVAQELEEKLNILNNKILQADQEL", "assay": "APOL1-mediated calcium transport (calcium influx) assay, HEK T-REx/GCaMP6f/APOL1 G2 K6.3 cells, FLIPR TETRA", "format": "cell-based", "conditions": "prevention of calcium influx; geometric mean of at least 2 assay runs; † = average of a technical replicate from a single assay run", "summary_of_the_method": "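A HEK293 T-REx clone stably expressing GCaMP6f had APOL1 G2 induced with doxycycline (20 ng/mL solution added) for 6 h. Cells were then washed into Ca2+-free Tyrode's buffer (pH 7.4) and preincubated with compounds (duplicate 8-point) for 10 min at room temperature. Ca2+ injection to 5 mM final produced FLIPR GCaMP fluorescence, giving AC50 for influx inhibition (geometric mean, ≥2 runs).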", "units": {"AC50": "µM"}, "values": [
      {"compound": "CP(C)(=O)C1(c2ccc(OCCN3CCC4(CC3)C(=O)Nc3ccc(Cl)cc34)cc2)CC1", "note": "[Compound 343, 5-chloro-1′-(2-{4-[1-(dimethylphosphoryl)cyclopropyl]phenoxy}ethyl)-1,2-dihydrospiro[indole-3,4′-piperidin]-2-one]", "AC50": 0.437},
      {"compound": "C[C@]1(O)C[C@@H](n2ccc3cc(OCCN4CCC5(CC4)C(=O)Nc4ccc(C#N)cc45)cnc32)C1", "note": "[Compound 410, 2-oxo-1′-[2-({1-[(cis)-3-hydroxy-3-methylcyclobutyl]-1H-pyrrolo[2,3-b]pyridin-5-yl}oxy)ethyl]-1,2-dihydrospiro[indole-3,4′-piperidine]-5-carbonitrile]", "AC50": 0.623},
      {"compound": "C[C@]1(O)C[C@@H](n2ncc3cc(OCCN4CCC5(CC4)C(=O)Nc4ccc(Cl)cc45)cc(C(F)(F)F)c32)C1", "note": "[Compound 464, 5-chloro-1′-[2-({1-[(cis)-3-hydroxy-3-methylcyclobutyl]-7-(trifluoromethyl)-1H-indazol-5-yl}oxy)ethyl]-1,2-dihydrospiro[indole-3,4′-piperidin]-2-one]", "AC50": 1.19},
      {"compound": "C[C@]1(O)C[C@@H](n2nnc3cc(OCCN4CCC5(CC4)C(=O)Nc4ccc(Cl)cc45)cnc32)C1", "note": "[Compound 440, 5-chloro-1′-[2-({3-[(cis)-3-hydroxy-3-methylcyclobutyl]-3H-[1,2,3]triazolo[4,5-b]pyridin-6-yl}oxy)ethyl]-1,2-dihydrospiro[indole-3,4′-piperidin]-2-one]", "AC50": 0.552},
      {"compound": "O=C1Nc2ccc(Cl)cc2C12CCN(CCOc1cnc(C3(CO)CC3)nc1)CC2", "note": "[Compound 333, 5-chloro-1′-[2-({2-[1-(hydroxymethyl)cyclopropyl]pyrimidin-5-yl}oxy)ethyl]-1,2-dihydrospiro[indole-3,4′-piperidin]-2-one]", "AC50": 0.486},
      {"compound": "Cc1nc(-c2ccc(OCCN3CCC4(CC3)C(=O)N(C)c3ccccc34)cc2)no1", "note": "[Compound 35, 1-methyl-1′-{2-[4-(5-methyl-1,2,4-oxadiazol-3-yl)phenoxy]ethyl}-1,2-dihydrospiro[indole-3,4′-piperidin]-2-one]", "AC50": 0.142},
      {"compound": "O=C1Nc2ccccc2C12CCN(CCOc1ccc(S(=O)(=O)C(F)F)cc1)CC2", "note": "[Compound 44, 1′-[2-(4-difluoromethanesulfonylphenoxy)ethyl]-1,2-dihydrospiro[indole-3,4′-piperidin]-2-one]", "AC50": 0.352},
      {"compound": "C[C@]1(O)C[C@@H](n2c(=O)oc3cc(OCCN4CCC5(CC4)C(=O)Nc4ccc(Cl)cc45)cnc32)C1", "note": "[Compound 394, 5-chloro-1′-[2-({2-oxo-3-[(cis)-3-hydroxy-3-methylcyclobutyl]-2H,3H-[1,3]oxazolo[4,5-b]pyridin-6-yl}oxy)ethyl]-1,2-dihydrospiro[indole-3,4′-piperidin]-2-one]", "AC50": 0.25},
      {"compound": "CCC1(O)CN(c2ncc(OCCN3CCC4(CC3)C(=O)Nc3ccc(Cl)cc34)cn2)C1", "note": "[Compound 397, 5-chloro-1′-(2-{[2-(3-ethyl-3-hydroxyazetidin-1-yl)pyrinlidin-5-yl]oxy}ethyl)-1,2-dihydrospiro[indole-3,4′-piperidin]-2-one]", "AC50": 0.416},
      {"compound": "CC(CO)(c1ncc(OCCN2CCC3(CC2)C(=O)Nc2ccc(Cl)cc23)cc1C(F)(F)F)S(C)(=O)=O", "note": "(centres unmarked) [Compound 401, 5-chloro-1′-(2-{[6-(1-hydroxy-2-methanesulfonylpropan-2-yl)-5-(trifluoromethyl)pyridin-3-yl]oxy}ethyl)-1,2-dihydrospiro[indole-3,4′-piperidin]-2-one]", "AC50": 0.603},
      {"compound": "C[C@]1(O)C[C@@H](n2ccc3cc(OCCN4CCC5(CC4)C(=O)Nc4ccc(Cl)cc45)cnc32)C1", "note": "[Compound 349, 5-chloro-1′-[2-({1-[(cis)-3-hydroxy-3-methylcyclobutyl]-1H-pyrrolo[2,3-b]pyridin-5-yl}oxy)ethyl]-1,2-dihydrospiro[indole-3,4′-piperidin]-2-one]", "AC50": 0.199},
      {"compound": "CN1C(=O)Cc2cc(OCCN3CCC4(CC3)C(=O)Nc3ccc(Cl)cc34)ccc21", "note": "[Compound 65, 5-chloro-1′-{2-[(1-methyl-2-oxo-2,3-dihydro-1H-indol-5-yl)oxy]ethyl}-1,2-dihydrospiro[indole-3,4′-piperidin]-2-one]", "AC50": 0.639},
      {"compound": "CN1C(=O)CCc2cc(OCCN3CCC4(CC3)C(=O)Nc3ccc(Cl)cc34)cnc21", "note": "[Compound 78, 5-chloro-1′-{2-[(8-methyl-7-oxo-5,6,7,8-tetrahydro-1,8-naphthyridin-3-yl)oxy]ethyl}-1,2-dihydrospiro[indole-3,4′-piperidin]-2-one]", "AC50": 0.522},
      {"compound": "C[C@]1(O)C[C@@H](n2c(=O)[nH]c3cc(OCCN4CCC5(CC4)C(=O)Nc4ccc(C#N)cc45)cc(C(F)(F)F)c32)C1", "note": "[Compound 470, 2-oxo-1′-[2-({2-oxo-1-[(cis)-3-hydroxy-3-methylcyclobutyl]-7-(trifluoromethyl)-2,3-dihydro-1H-1,3-benzodiazol-5-yl}oxy)ethyl]-1,2-dihydrospiro[indole-3,4′-piperidine]-5-carbonitrile]", "AC50": 1.11},
      {"compound": "[2H]C([2H])(Oc1cnc2c(c1)CCC(=O)N2[C@H]1C[C@@](C)(O)C1)C([2H])([2H])N1CCC2(CC1)C(=O)Nc1ccc(Cl)cc12", "note": "[Compound 426, 5-chloro-1′-[2-({7-oxo-8-[(cis)-3-hydroxy-3-methylcyclobutyl]-5,6,7,8-tetrahydro-1,8-naphthyridin-3-yl}oxy)(1,1,2,2-^2H4)ethyl]-1,2-dihydrospiro[indole-3,4′-piperidin]-2-one]", "AC50": 0.597},
      {"compound": "C[C@]1(O)C[C@@H](n2nnc3cc(OCCN4CCC5(CC4)C(=O)Nc4ccc(Cl)cc45)cc(C(F)(F)F)c32)C1", "note": "[Compound 434, 5-chloro-1′-[2-({1-[(cis)-3-hydroxy-3-methylcyclobutyl]-7-(trifluoromethyl)-1H-1,2,3-benzotriazol-5-yl}oxy)ethyl]-1,2-dihydrospiro[indole-3,4′-piperidin]-2-one]", "AC50": 1.27},
      {"compound": "C[C@]1(O)C[C@@H](n2cc3cc(OCCN4CCC5(CC4)C(=O)Nc4ccc(Cl)cc45)cc(C(F)(F)F)c3n2)C1", "note": "[Compound 427, 5-chloro-1′-[2-({2-[(cis)-3-hydroxy-3-methylcyclobutyl]-7-(trifluoromethyl)-2H-indazol-5-yl}oxy)ethyl]-1,2-dihydrospiro[indole-3,4′-piperidin]-2-one]", "AC50": 0.708},
      {"compound": "CC(c1ncc(OCCN2CCC3(CC2)C(=O)Nc2ccc(Cl)cc23)cn1)S(C)(=O)=O", "note": "(centres unmarked) [Compound 1, 5-Chloro-1′-(2-{[2-(1-methanesulfonylethyl)pyrimidin-5-yl]oxy}ethyl)-1,2-dihydrospiro[indole-3,4′-piperidin]-2-one]", "AC50": 0.703},
      {"compound": "CNC(=O)N1CCCc2cc(OCCN3CCC4(CC3)C(=O)Nc3ccc(Cl)cc34)ccc21", "note": "[Compound 60, 6-(2-{5-chloro-2-oxo-1,2-dihydrospiro[indole-3,4′-piperidin]-1′-yl}ethoxy)-N-methyl-1,2,3,4-tetrahydroquinoline-1-carboxamide]", "AC50": 0.652},
      {"compound": "CS(=O)(=O)c1ccc(OCCN2CCC3(CC2)C(=O)Nc2ccc(Cl)cc23)cc1C#N", "note": "[Compound 50, 5-(2-{5-chloro-2-oxo-1,2-dihydrospiro[indole-3,4′-piperidin]-1′-yl}ethoxy)-2-methanesulfonylbenzonitrile]", "AC50": 0.622},
      {"compound": "C[C@]1(O)C[C@@H](N2C(=O)Cc3cc(OCCN4CCC5(CC4)C(=O)Nc4ccc(C(F)F)cc45)cnc32)C1", "note": "[Compound 346, 5-(difluoromethyl)-1′-[2-({2-oxo-1-[(cis)-3-hydroxy-3-methylcyclobutyl]-1H,2H,3H-pyrrolo[2,3-b]pyridin-5-yl]oxy)ethyl]-1,2-dihydrospiro[indole-3,4′-piperidin]-2-one]", "AC50": 0.557},
      {"compound": "CS(C)(=O)=Nc1ccc(OCCN2CCC3(CC2)C(=O)Nc2ccc(C#N)cc23)cc1", "note": "[Compound 77, 1′-[2-(4-{[dimethyl(oxo)-λ^6-sulfanylidene]amino}phenoxy)ethyl]-2-oxo-1,2-dihydrospiro[indole-3,4′-piperidine]-5-carbonitrile]", "AC50": 1.6},
      {"compound": "CS(=O)(=O)c1ccc(OCCN2CCC3(CC2)C(=O)Nc2ccc(Br)cc23)cc1", "note": "[Compound 72, 5-bromo-1′-[2-(4-methanesulfonylphenoxy)ethyl]-1,2-dihydrospiro[indole-3,4′-piperidin]-2-one]", "AC50": 0.252},
      {"compound": "C[C@]1(O)C[C@@H](n2c(=O)ccc3cc(OCCN4CCC5(CC4)C(=O)Nc4ccc(OC(F)F)cc45)cnc32)C1", "note": "[Compound 328, 5-(difluoromethoxy)-1′-[2-({7-oxo-8-[(cis)-3-hydroxy-3-methylcyclobutyl]-7,8-dihydro-1,8-naphthyridin-3-yl}oxy)ethyl]-1,2-dihydrospiro[indole-3,4′-piperidin]-2-one]", "AC50": 0.748},
      {"compound": "CC(C)[C@]1(O)C[C@@H](N2C(=O)CCc3cc(OCCN4CCC5(CC4)C(=O)Nc4ccc(Cl)cc45)cnc32)C1", "note": "[Compound 317, 5-chloro-1′-[2-({7-oxo-8-[(cis)-3-hydroxy-3-(propan-2-yl)cyclobutyl]-5,6,7,8-tetrahydro-1,8-naphthyridin-3-yl}oxy)ethyl]-1,2-dihydrospiro[indole-3,4′-piperidin]-2-one]", "AC50": 0.792},
      {"compound": "C[C@]1(O)C[C@@H](N2C(=O)CCc3cc(OCCN4CCC5(CC4)C(=O)Nc4ccc(OC(F)F)cc45)cnc32)C1", "note": "[Cmpd 325, 5-(difluoromethoxy)-1′-[2-({7-oxo-8-[(cis)-3-hydroxy-3-methylcyclobutyl]-5,6,7,8-tetrahydro-1,8-naphthyridin-3-yl}oxy)ethyl]-1,2-dihydrospiro[indole-3,4′-piperidin]-2-one]", "AC50": 0.791}
    ]}
  ]
}
